In ChEMBL document CHEMBL1158871, “Minor Bioactive Dihydrophenanthrenes from Juncus effusus” (1997):

system: Selenastrum capricornutum; test: Antialgal activity against Selenastrum capricornutum UTEX 1648 assessed as growth inhibition at 10 uM exposed to 150 uEs'-1m'-2 irradiation under 16 hrs light/8 hrs dark photoperiod conditions relative to control; format: functional; conditions: UTEX 1648, light or radiation study, read-out: GI

| Structure (SMILES) | inhibition of growth at 10 µM [%] |
| --- | --- |
| Cc1c(O)ccc2c1CCc1c(C)c(O)cc(CO)c1-2 | 10 |
| Cc1cc(CO)c2c(c1)CCc1c-2ccc(O)c1C | 20 |
| C=Cc1cc(CO)cc2c1-c1ccc(O)c(C)c1CC2 | 0 |
| Cc1c(O)ccc2c1CCc1c(C)c(O)cc(C(C)O)c1-2 (stereo not drawn) | 20 |
| COc1cc(CO)c2c(c1C)CCc1c-2ccc(O)c1C | 18 |
| C=Cc1c(CO)ccc2c1-c1ccc(O)c(C)c1CC2 | 5 |
| Cc1cc2c(c3c1OC(O)C3O)-c1ccc(O)c(C)c1CC2 (stereo not drawn) | 0 |

system: Selenastrum capricornutum; test: Antialgal activity against Selenastrum capricornutum UTEX 1648 assessed as growth inhibition at 0.1 mM exposed to 150 uEs'-1m'-2 irradiation under 16 hrs light/8 hrs dark photoperiod conditions relative to control; format: functional; conditions: UTEX 1648, light or radiation study, read-out: GI

| Structure (SMILES) | inhibition of growth at 100 µM [%] |
| --- | --- |
| Cc1c(O)ccc2c1CCc1c(C)c(O)cc(CO)c1-2 | 70 |
| Cc1cc(CO)c2c(c1)CCc1c-2ccc(O)c1C | 80 |
| C=Cc1cc(CO)cc2c1-c1ccc(O)c(C)c1CC2 | 57 |
| Cc1c(O)ccc2c1CCc1c(C)c(O)cc(C(C)O)c1-2 (stereo not drawn) | 75 |
| COc1cc(CO)c2c(c1C)CCc1c-2ccc(O)c1C | 80 |
| C=Cc1c(CO)ccc2c1-c1ccc(O)c(C)c1CC2 | 64 |
| Cc1cc2c(c3c1OC(O)C3O)-c1ccc(O)c(C)c1CC2 (stereo not drawn) | 20 |

system: Selenastrum capricornutum; test: Antialgal activity against Selenastrum capricornutum UTEX 1648 assessed as growth inhibition at 5 uM exposed to 150 uEs'-1m'-2 irradiation under 16 hrs light/8 hrs dark photoperiod conditions relative to control; format: functional; conditions: UTEX 1648, light or radiation study, read-out: GI

| Structure (SMILES) | inhibition of growth at 5 µM [%] |
| --- | --- |
| Cc1c(O)ccc2c1CCc1c(C)c(O)cc(CO)c1-2 | 4 |
| Cc1cc(CO)c2c(c1)CCc1c-2ccc(O)c1C | 7 |
| C=Cc1cc(CO)cc2c1-c1ccc(O)c(C)c1CC2 | 0 |
| Cc1c(O)ccc2c1CCc1c(C)c(O)cc(C(C)O)c1-2 (stereo not drawn) | 5 |
| COc1cc(CO)c2c(c1C)CCc1c-2ccc(O)c1C | 0 |
| C=Cc1c(CO)ccc2c1-c1ccc(O)c(C)c1CC2 | 0 |
| Cc1cc2c(c3c1OC(O)C3O)-c1ccc(O)c(C)c1CC2 (stereo not drawn) | 0 |

system: Selenastrum capricornutum; test: Antialgal activity against Selenastrum capricornutum UTEX 1648 assessed as growth inhibition at 50 uM exposed to 150 uEs'-1m'-2 irradiation under 16 hrs light/8 hrs dark photoperiod conditions relative to control; format: functional; conditions: UTEX 1648, light or radiation study, read-out: GI

| Structure (SMILES) | inhibition of growth at 50 µM [%] |
| --- | --- |
| Cc1c(O)ccc2c1CCc1c(C)c(O)cc(CO)c1-2 | 40 |
| Cc1cc(CO)c2c(c1)CCc1c-2ccc(O)c1C | 50 |
| C=Cc1cc(CO)cc2c1-c1ccc(O)c(C)c1CC2 | 38 |
| Cc1c(O)ccc2c1CCc1c(C)c(O)cc(C(C)O)c1-2 (stereo not drawn) | 52 |
| COc1cc(CO)c2c(c1C)CCc1c-2ccc(O)c1C | 55 |
| C=Cc1c(CO)ccc2c1-c1ccc(O)c(C)c1CC2 | 40 |
| Cc1cc2c(c3c1OC(O)C3O)-c1ccc(O)c(C)c1CC2 (stereo not drawn) | 10 |
